Columns and labels:
EGFR T790M/L858R = target: T1, EGFR T790M/L858R (Homo sapiens, UniProt P00533, L858R/T790M); test: EGFR T790M/L858R enzymatic inhibition (HTRF); format: biochemical; conditions: 20 μM ATP
T1 construct: purchased Life technology (Madison, Wis.)
Method: Enzyme: ALK wild-type, ALK C1156Y and ALK L1196M supplied by Carna Biosciences (Japan), EGFR T790M/L858R supplied by Life technology (Madison, Wis.).
HTRF kit: supplied by Cis-Bio International, with Eu-marked TK1 antibody, XL665- and biotin-labelled TK1 polypeptide substrates.
The compound to be tested is diluted at a gradient by 3 times thereby giving 11 gradients starting from […] to 0.017 nM for the final concentration.
10 μl EGFR T790M/L858R enzyme reaction mixture system: 0.08 nM EGFR T790M/L858R, 1 μM biotin-TK1 peptide, 20 μM ATP. Reaction buffer: 50 mM Hepes (pH7.5), 10 mM MgCl2, 0.01 mM NaV3VO4. The reaction plate was white Proxiplate 384-Plus plate (PerkinElmer). Reaction was reacted at room temperature for 60 minutes.
Detecting reaction: 10 μl testing reagent was added to the reaction plate, the final concentration of Antibody was 2 nM, XL665 was 62.5 nM. Incubation was carried out for 60 minutes at room temperature. Detection was by Envision.

[1] = tested on: LU-01-0015 xenotransplantation (PDX) from lung cancer patients; test: In vivo efficacy, LU-01-0015 xenotransplantation (PDX) from lung cancer patients; set-up: species or system BALB/c nude mice; conditions: 25 mg/kg orally everyday
Description: BALB/c nude mice, female, 6 to 8 weeks, about 18 to 22 g bodyweight, was kept in a special environment without pathogens, and a single ventilated cage (5 mice per cage). Beddings and water in all the cages were disinfected before use. […] 80 mice were supplied by Shanghai BK Laboratory Animal Co., LTD for study. Each mouse was subcutaneously implanted tumor tissue (20-30 mm^3) at right flank for growth of tumor. When the average tumor volume reached about 250-300 mm^3, the assay started. Test compounds were delivered orally everyday, 25 mg/kg. Tumor size was measured with two-dimensional caliper every 3 days, size was recorded by mm^3, and calculated by the following formula: V=V=0.5a×b2, where a and b are respectively the long diameter and short diameter length of the tumor. The antitumor efficacy was determined by dividing the average increased tumor volume in compound-treated animal by the average increased tumor volume in untreated animal.

[2] = tested on: LU-01-0319 Crizotinib resistance model; test: In vivo anti-tumor efficacy, Crizotinib resistant LU-01-0319 xenotransplantation (PDX) tumor; set-up: species or system BALB/c nude mice
Description: LU-01-0319 xenotransplantation tumor models initially obtained from clinical sample through surgical resection were implanted into nude mice, which was defined as a batch of P0 (LU-01-0319-P0). The next batch was defined as P1 (LU-01-0319-P1) which was implanted tumors from P0. FP3 was regained from P2, the next batch was defined as FP4 which was implanted tumors from FP3. […] The continuous increasing tumors were defined as LU-01-0319 antitumor models. BALB/c nude mice, female, 6 to 8 weeks, about 18 to 22 g bodyweight, 75 mice were used for study, supplied by Shanghai BK Laboratory Animal Co., LTD. Tumour biopsies (about 30 mm^3) of LU-01-0319R FP6 were implanted subcutaneously on right side of each mouse for growth of tumor. […] Dose of Crizotinib was appropriately varied depending on the tumor size. When average tumor volume reached about ˜500 mm^3, the assay began. Once a day the compounds to be tested were orally administered. Tumor size were measured twice a week with a caliper at two dimensions, and calculated with the following formula: V=0.5a×b2, where a and b are respectively long diameter and short diameter of the tumor. The antitumor efficacy was determined by dividing the average increased tumor volume in compound-treated animal by the average increased tumor volume in untreated animal.

T1 sequence (P00533 25-1210 T790M/L858R): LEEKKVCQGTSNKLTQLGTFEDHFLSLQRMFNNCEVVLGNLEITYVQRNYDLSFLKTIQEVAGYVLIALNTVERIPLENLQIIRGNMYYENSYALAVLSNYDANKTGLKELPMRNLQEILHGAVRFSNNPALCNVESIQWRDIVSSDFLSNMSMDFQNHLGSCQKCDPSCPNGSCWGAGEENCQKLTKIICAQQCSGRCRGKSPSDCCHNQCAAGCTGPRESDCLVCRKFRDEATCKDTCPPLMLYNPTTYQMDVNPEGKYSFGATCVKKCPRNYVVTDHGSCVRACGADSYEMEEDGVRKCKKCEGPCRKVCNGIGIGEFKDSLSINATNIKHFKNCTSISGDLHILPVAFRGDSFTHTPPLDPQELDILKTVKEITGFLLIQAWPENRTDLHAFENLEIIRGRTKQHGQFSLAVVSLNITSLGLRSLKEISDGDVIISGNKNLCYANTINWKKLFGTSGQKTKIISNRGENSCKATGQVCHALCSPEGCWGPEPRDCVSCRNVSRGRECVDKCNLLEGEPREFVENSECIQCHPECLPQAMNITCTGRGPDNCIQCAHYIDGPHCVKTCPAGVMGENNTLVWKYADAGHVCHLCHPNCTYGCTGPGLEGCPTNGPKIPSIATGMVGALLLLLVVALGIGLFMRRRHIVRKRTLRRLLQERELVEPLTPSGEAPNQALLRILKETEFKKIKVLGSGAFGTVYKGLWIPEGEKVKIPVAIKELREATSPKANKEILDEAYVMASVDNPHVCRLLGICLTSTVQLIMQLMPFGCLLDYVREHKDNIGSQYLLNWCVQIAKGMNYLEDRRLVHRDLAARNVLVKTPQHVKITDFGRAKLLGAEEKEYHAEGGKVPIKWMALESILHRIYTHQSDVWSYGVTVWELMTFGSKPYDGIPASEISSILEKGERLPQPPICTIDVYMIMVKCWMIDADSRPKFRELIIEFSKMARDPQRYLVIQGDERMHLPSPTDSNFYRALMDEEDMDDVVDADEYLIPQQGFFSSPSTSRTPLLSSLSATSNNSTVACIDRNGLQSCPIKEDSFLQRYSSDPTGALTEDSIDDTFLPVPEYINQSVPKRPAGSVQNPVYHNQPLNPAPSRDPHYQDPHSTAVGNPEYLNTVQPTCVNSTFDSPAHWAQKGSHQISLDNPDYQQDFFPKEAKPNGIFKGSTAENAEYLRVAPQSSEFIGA

SMILES | IC50 (EGFR T790M/L858R) | Tumor volume ([1]; 3 days) | Tumor volume ([1]; 6 days) | Tumor volume ([1]; 9 days) | Tumor volume ([1]; 12 days) | Tumor volume ([1]; 16 days) | Tumor volume ([1]; 19 days) | Tumor volume ([1]; 23 days) | other results
COc1cc(N2CCC3(CCNC3)CC2)ccc1Nc1ncc(Cl)c(Nc2ccccc2P(C)(C)=O)n1 [Compound 3, (2-((5-Chloro-2-((2-methoxy-4-(2,8-diazaspiro[4.5]decan-8-yl)phenyl)amino)pyrimidin-4-yl)amino)phenyl)dimethylphosphine oxide] | 1 to 100 nM |  |  |  |  |  |  |  | 
COc1cc(N2CCC3(CC2)CNC3)ccc1Nc1ncc(Cl)c(Nc2ccccc2P(C)(C)=O)n1 [Compound 4, (2-((5-Chloro-2-((2-methoxy-4-(2,7-diazaspiro[3.5]nonan-7-yl)phenyl)amino)pyrimidin-4-yl)amino)phenyl)dimethyl phosphine oxide] | 1 to 100 nM |  |  |  |  |  |  |  | 
COc1cc(N2CCC3(CNC3)C2)ccc1Nc1ncc(Cl)c(Nc2ccccc2P(C)(C)=O)n1 [Compound 6, (2-((5-Chloro-2-((2-methoxy-4-(2,6-diazaspiro[3.4]octan-6-yl)phenyl)amino)pyrimidin-4-yl)amino)phenyl)dimethyl phosphine oxide] | 1 to 100 nM |  |  |  |  |  |  |  | 
COc1cc(N2CCC3(CCNCC3)CC2)ccc1Nc1ncc(Cl)c(Nc2ccccc2P(C)(C)=O)n1 [Compound 8, (2-((5-Chloro-2-((2-methoxy-4-(3,9-diazaspiro[5.5]undecan-3-yl)phenyl)amino)pyrimidin-4-yl)amino)phenyl)dimethyl phosphine oxide] | 1 to 100 nM |  |  |  |  |  |  |  | 
CN1CCC2(CC1)CCN(c1ccc(Nc3ncc(Cl)c(Nc4ccccc4P(C)(C)=O)n3)c(OC(F)F)c1)CC2 [Compound 11, (2-((5-Chloro-2-((2-(difluoromethoxy)-4-(9-methyl-3,9-diazaspiro[5.5]undecan-3-yl)phenyl)amino)pyrimidin-4-yl)amino)phenyl)dimethyl phosphine oxide] | 1 to 100 nM |  |  |  |  |  |  |  | 
COc1cc(N2CCC3(CCN(C)CC3)CC2)ccc1Nc1ncc(Cl)c(Nc2ccccc2P(C)(C)=S)n1 [Compound 12, 5-Chloro-N^4-(2-(dimethylphosphorothioyl)phenyl)-N^2-(2-methoxy-4-(9-methyl-3,9-diazaspiro[5.5]undecan-3-yl)phenyl)pyrimidine-2,4-diamine] | 1 to 100 nM | 199 mm^3 | 97 mm^3 | 90 mm^3 | 58 mm^3 | 49 mm^3 | 42 mm^3 | 32 mm^3 | 
COc1cc(N2CCC3(CCN(C)CC3)CC2)c(F)cc1Nc1ncc(Cl)c(Nc2ccccc2P(C)(C)=O)n1 [Compound 20, (2-((5-Chloro-2-((5-fluoro-2-methoxy-4-(9-methyl-3,9-diazaspiro[5.5]undecan-3-yl)phenyl)amino)pyrimidin-4-yl)amino)phenyl)dimethyl phosphine oxide] | 1 to 100 nM |  |  |  |  |  |  |  | 
COc1cc(N2CCC3(CCN(C)CC3)CC2)c(Cl)cc1Nc1ncc(Cl)c(Nc2ccccc2P(C)(C)=O)n1 [Compound 22, (2-((5-Chloro-2-((5-chloro-2-methoxy-4-(9-methyl-3,9-diazaspiro[5.5]undecan-3-yl)phenyl)amino)pyrimidin-4-yl)amino)phenyl)dimethyl phosphine oxide] | 1 to 100 nM | 234 mm^3 | 137 mm^3 | 90 mm^3 | 68 mm^3 | 46 mm^3 | 54 mm^3 | 41 mm^3 | 
COc1cc(N2CCC3(CCN(C)CC3)CC2)c(C)cc1Nc1ncc(Cl)c(Nc2ccccc2P(C)(C)=O)n1 [Compound 23, (2-((5-Chloro-2-((2-methoxy-5-methyl-4-(9-methyl-3,9-diazaspiro[5.5]undecan-3-yl)phenyl)amino)pyrimidin-4-yl)amino)phenyl)dimethyl phosphine oxide] | 1 to 100 nM |  |  |  |  |  |  |  | 
COc1cc(N2CCC3(CCN(C)CC3)CC2)ccc1Nc1ncc(Cl)c(Nc2c(F)cccc2P(C)(C)=O)n1 [Compound 25, (2-((5-Chloro-2-((2-methoxy-4-(9-methyl-3,9-diazaspiro[5.5]undecan-3-yl)phenyl)amino)pyrimidin-4-yl)amino)-3-fluorophenyl)dimethyl phosphine oxide] | 101 to 1000 nM |  |  |  |  |  |  |  | 
COc1cc(N2CCC3(CCN(C)CC3)CC2)ccc1Nc1ncc(Cl)c(Nc2ccc(F)cc2P(C)(C)=O)n1 [Compound 26, (2-((5-Chloro-2-((2-methoxy-4-(9-methyl-3,9-diazaspiro[5.5]undecan-3-yl)phenyl)amino)pyrimidin-4-yl)amino)-5-fluorophenyl)dimethyl phosphine oxide] | 1 to 100 nM | 235 mm^3 | 127 mm^3 | 84 mm^3 | 55 mm^3 | 46 mm^3 | 59 mm^3 | 53 mm^3 | 
COc1cc(C2CCC3(CC2)CCN(C)CC3)ccc1Nc1ncc(Cl)c(Nc2ccccc2P(C)(C)=O)n1 [Compound 27, (2-((5-Chloro-2-((2-methoxy-4-(3-methyl-3-azaspiro[5.5]undecan-9-yl)phenyl)amino)pyrimidin-4-yl)amino)phenyl)dimethyl phosphine oxide] | 1 to 100 nM | 158 mm^3 | 82 mm^3 | 68 mm^3 | 49 mm^3 | 34 mm^3 | 41 mm^3 | 35 mm^3 | Tumor volume ([2]; 0 day, dosage 3 mg/Kg orally once a day): 503 mm^3; Tumor volume ([2]; 0 day, dosage 10 mg/Kg orally once a day): 502 mm^3; Tumor volume ([2]; 3 days, dosage 3 mg/Kg orally once a day): 689 mm^3; Tumor volume ([2]; 3 days, dosage 10 mg/Kg orally once a day): 650 mm^3; Tumor volume ([2]; 7 days, dosage 3 mg/Kg orally once a day): 777 mm^3; Tumor volume ([2]; 7 days, dosage 10 mg/Kg orally once a day): 752 mm^3; Tumor volume ([2]; 10 days, dosage 3 mg/Kg orally once a day): 1003 mm^3; Tumor volume ([2]; 10 days, dosage 10 mg/Kg orally once a day): 743 mm^3; Tumor volume ([2]; 13 days, dosage 3 mg/Kg orally once a day): 1177 mm^3; Tumor volume ([2]; 13 days, dosage 10 mg/Kg orally once a day): 705 mm^3; Tumor volume ([2]; 17 days, dosage 3 mg/Kg orally once a day): 1490 mm^3; Tumor volume ([2]; 17 days, dosage 10 mg/Kg orally once a day): 756 mm^3; Tumor volume ([2]; 19 days, dosage 3 mg/Kg orally once a day): 1602 mm^3; Tumor volume ([2]; 19 days, dosage 10 mg/Kg orally once a day): 692 mm^3
C[C@@H](Oc1cc(-c2cnn(C3CCNCC3)c2)cnc1N)c1c(Cl)ccc(F)c1Cl [Crizotinib, reference compound] |  | 297 mm^3 | 288 mm^3 | 311 mm^3 | 340 mm^3 | 413 mm^3 | 419 mm^3 | 439 mm^3 | Tumor volume ([2]; 0 day, 25 mg/Kg orally once a day): 502 mm^3; Tumor volume ([2]; 3 days, 25 mg/Kg orally once a day): 708 mm^3; Tumor volume ([2]; 7 days, 25 mg/Kg orally once a day): 828 mm^3; Tumor volume ([2]; 10 days, 25 mg/Kg orally once a day): 1002 mm^3; Tumor volume ([2]; 13 days, 25 mg/Kg orally once a day): 1116 mm^3; Tumor volume ([2]; 17 days, 25 mg/Kg orally once a day): 1415 mm^3; Tumor volume ([2]; 19 days, 25 mg/Kg orally once a day): 1488 mm^3
